This is an account of results in patent US8288423B2, “FXa inhibitors with cyclic amidines as P4 subunit, processes for their preparations, and pharmaceutical compositions and derivatives thereof” (Legochem Bioscience Ltd., priority 2007, dated 2012).

In brackets after ≈: the same amount, converted by molar mass.

One data set deals with plasma. In words: Measurement of aPTT (activated partial thromboplastin time) in plasma. It counts as biochemical. Set-up: unit not given here. Conditions: STA-PTT, CaCl2, 37° C., unit not given. On the procedure: The effect of oxazolidinone derivatives with cyclic amidines represented by Chemical Formula (1) according to the invention on blood coagulation was compared by measuring PT (prothrombin time) and aPTT (activated Partial Thromboplastin Time). The procedure of measurement is described below. A solution (5 μL) of the oxazolidinone derivative with cyclic amidine group represented by Chemical Formula (1) according to the invention (in a various concentration gradient, 5% DMSO solution) was added to the plasma ([…]), and the reaction was carried out at 37° C. for 2 minutes. STA-PTT (Diagnostica Stago) (50 μL) was then added thereto. After the reaction at 37° C. for additional 5 minutes, 25 mM CaCl2 (50 μL) was added thereto, and the duration for plasma coagulation was measured. The duration for plasma coagulation was determined as the point when the absorbance at 340 nm reaches 0.1.

The nature of data set [1]: Determination of aqueous solubility. It counts as physicochemical. Conditions: aqueous with cosolvent or surfactant or cyclodextrin, kinetic from dmso stock; 100 mM potassium phosphate buffer pH 7.4, 5% DMSO, final concentration 500 μM, ambient temperature 90 minutes. On the procedure:
The plate was agitated at ambient temperature for 90 minutes with a rate of 225 rpm. After agitation, the content of the plate was filtered with application of pressure. The filtrate (160 μL) was individually transferred to a uv-96 well plate (Costar), and mixed with 40 μL of acetonitrile, and then agitated at ambient temperature for 10 minutes with a rate of 225 rpm. By means of a plate reader (Molecular Devices, Spectramax 190), absorbances at the wavelengths of 280, 300, 320, 340, 360 and 800 nm were measured. As a reference solution, employed was 100 mM potassium phosphate buffer (pH 7.4) containing 20% acetonitrile added by 10 mM DMSO solution (8 μL).

For another data set, the system named is plasma protein. In words: Determination of plasma protein binding (ultrafiltration, LC-MS/MS). The format is in vitro ADME. Particulars: citrated plasma, 37° C., 60 minutes, Ultracel-10 filter. On the procedure: Citrated plasma was purchased from Daejeon-Chungnam Blood Institute (located at Daejeon, Korea). A compound solution (500 μM in DMSO) (10 μL), according to the invention Was added to the plasma (1 mL), and the reaction was carried out at 37° C. and 120 rpm for 60 minutes. To three wells of Ultracel-10 filter plate (Millipore), the reaction solution was transferred (300 μL each). Then, the plasma solution (70 μL) was taken, and the total concentration of the compound was quantified by means of LC-MS/MS (API3000, ABI). After centrifuging the Ultracel-10 filter plate at 37° C. and 2000×g for 45 minutes, the filtrate was taken to determine the concentration of the compound which was not bound to the plasma protein. Percentage of plasma protein binding was obtained via Equation (2): % Protein binding=(1−concentration of compound in filtrate/concentration of compound in entire solution)×100% Free=100−% Protein binding [Equation 2]

The test system of the next data set is thrombus formation. In words: % inhibition against thrombus formation, arteriovenous shunt model in white rats. The format is in vivo, white rats (male Sprague Dawley). Conditions: orally administered 1 hour before opening of the shunt; 15 minutes circulation; versus control group. On the set-up: concentration or dose not given beside the values. As for the experimental part: 3) Determination of % Inhibition Against Thrombus Formation by Means of Arteriovenous Shunt Model ([…]) in White Rats Antithrombotic effect of the compounds according to the present invention was evaluated by using arteriovenous shunt model in white rats. The animals used were male Sprague Dawleys with the body weight of 200-250 g. For one day before the experiment, the animals were fasted. Five to six animals were used for each test group. The compound of Example was orally administered 1 hour before opening of the shunt. The rats were anesthetized by abdominal administration of Rompun (Bay HealthCare) and Chloral hydrate or urethane in an amount of 12 and 50 mg per kg of the body weight. Into the left carotid artery and right jugular vein of the white rat, a polyethylene(PE)-60 tubing filled with physiological saline was inserted and secured. Both ends of individual PE tubing were connected to a silicone tubing having a length of 5 cm in which a cotton thread have been incorporated diagonally, and the shunt was open to provide circulation for 15 minutes. The shunt was then compressed by using jaws, and the cotton thread was carefully removed and the thrombus generated was weighed. The % inhibition of thrombus formation was calculated by using the weight of thrombus obtained from white rats of the control group to which a solution of oral administration was administered.

The conditions of data set [2]: background art; cited from earlier work.
Another data set concerns Citrated plasma. The data set can be described thus: Measurement of PT (prothrombin time) in citrated plasma. The format is biochemical. Particulars: STA-Neoplastine, 37° C., unit not given (2×PT value). On the procedure:
The effect of oxazolidinone derivatives with cyclic amidines represented by Chemical Formula (1) according to the invention on blood coagulation was compared by measuring PT (prothrombin time) and aPTT (activated Partial Thromboplastin Time). The procedure of measurement is described below. Citrated plasma was purchased from Daejeon-Chungnam Blood Institute (located at Daejeon, Korea). A compound solution (5 μL) according to the invention (in a various concentration gradient, 5% DMSO solution) was added to the plasma ([…]), and the reaction was carried out at 37° C. for 5 minutes. STA-Neoplastine (Diagnostica Stago) (100 μL) was then added thereto, and the duration for plasma coagulation was measured. The duration for plasma coagulation is determined as the point when the absorbance at 340 nm reaches 0.1.

The target in the next data set is T1, factor Xa (Homo sapiens, UniProt P00742).
T1 construct: purchased Enzyme Research Laboratories
T1 sequence (P00742 235-488 limits assumed): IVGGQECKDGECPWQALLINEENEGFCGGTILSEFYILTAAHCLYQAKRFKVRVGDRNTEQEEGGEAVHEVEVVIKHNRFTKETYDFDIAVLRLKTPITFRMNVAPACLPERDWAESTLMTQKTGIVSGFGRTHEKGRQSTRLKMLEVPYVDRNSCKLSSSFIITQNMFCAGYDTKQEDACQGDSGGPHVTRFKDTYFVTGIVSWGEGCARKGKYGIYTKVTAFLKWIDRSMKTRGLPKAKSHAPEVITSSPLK
T1 sequence (P00742 41-179 partner limits assumed): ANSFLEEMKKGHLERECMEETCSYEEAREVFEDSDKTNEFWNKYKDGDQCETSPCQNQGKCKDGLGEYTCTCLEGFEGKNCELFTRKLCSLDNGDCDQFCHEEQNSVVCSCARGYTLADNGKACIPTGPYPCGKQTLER
Conditions: background art; cited from earlier work.

Consider `O=C(NC[C@H]1CN(c2ccc(N3CCOCC3=O)cc2)C(=O)O1)c1ccc(Cl)s1` [Rivaroxaban, reference compound], for which the APTT in the data set with plasma was determined as 0.39. In data set [1], the solubility at 90 min amounted to 50 µM (≈ 21.8 µg/mL). In the data set on plasma protein, the “Plasma protein binding (% Free)” value turned out to be 9 % Free. Also, the “% Inhibition (of thrombus formation)” value in the data set on thrombus formation worked out at 83%. Also, the solubility result in data set [2] was “about 8 mg/L”. In the data set with Citrated plasma, the PT came out at 0.09.

B1: antistasin (protein, UniProt P15358 18-136, looked up)
Antistasin: QGPFGPGCEEAGCPEGSACNIITDRCTCSGVRCRMHCPHGFQRSRYGCEFCKCRLEPMKATCDISECPEGMMCSRLTNKCDCKIDINCRKTCPNGLKRDKLGCEYCECRPKRKLIPRLS
Take B1: the Ki in the data set with factor Xa was 0.05 nM.
